# Results published in patent US12297192B2, “Crystal form of pyrimidine sulfonamide compound and preparation method therefor” (WUXI BIOCITY BIOPHARMACEUTICS CO., LTD., priority 2019, dated 2025).
# Like-named read-outs stand apart in the source and are kept apart here.
# Experiments:
# [1] = molecular target: T1, bile salt export pump (BSEP) (Homo sapiens, UniProt O95342); assay: Inhibition test on bile salt export pump (BSEP), taurocholic acid uptake in BSEP-Hi5-VT vesicles; format: in vitro ADME
# T1 construct: purchased Solvo Biotechnology SB-BSEP-Hi5-VT; host or cells: Hi5 insect cells (read from the product name), membrane vesicles
# T1 sequence (O95342 whole entry): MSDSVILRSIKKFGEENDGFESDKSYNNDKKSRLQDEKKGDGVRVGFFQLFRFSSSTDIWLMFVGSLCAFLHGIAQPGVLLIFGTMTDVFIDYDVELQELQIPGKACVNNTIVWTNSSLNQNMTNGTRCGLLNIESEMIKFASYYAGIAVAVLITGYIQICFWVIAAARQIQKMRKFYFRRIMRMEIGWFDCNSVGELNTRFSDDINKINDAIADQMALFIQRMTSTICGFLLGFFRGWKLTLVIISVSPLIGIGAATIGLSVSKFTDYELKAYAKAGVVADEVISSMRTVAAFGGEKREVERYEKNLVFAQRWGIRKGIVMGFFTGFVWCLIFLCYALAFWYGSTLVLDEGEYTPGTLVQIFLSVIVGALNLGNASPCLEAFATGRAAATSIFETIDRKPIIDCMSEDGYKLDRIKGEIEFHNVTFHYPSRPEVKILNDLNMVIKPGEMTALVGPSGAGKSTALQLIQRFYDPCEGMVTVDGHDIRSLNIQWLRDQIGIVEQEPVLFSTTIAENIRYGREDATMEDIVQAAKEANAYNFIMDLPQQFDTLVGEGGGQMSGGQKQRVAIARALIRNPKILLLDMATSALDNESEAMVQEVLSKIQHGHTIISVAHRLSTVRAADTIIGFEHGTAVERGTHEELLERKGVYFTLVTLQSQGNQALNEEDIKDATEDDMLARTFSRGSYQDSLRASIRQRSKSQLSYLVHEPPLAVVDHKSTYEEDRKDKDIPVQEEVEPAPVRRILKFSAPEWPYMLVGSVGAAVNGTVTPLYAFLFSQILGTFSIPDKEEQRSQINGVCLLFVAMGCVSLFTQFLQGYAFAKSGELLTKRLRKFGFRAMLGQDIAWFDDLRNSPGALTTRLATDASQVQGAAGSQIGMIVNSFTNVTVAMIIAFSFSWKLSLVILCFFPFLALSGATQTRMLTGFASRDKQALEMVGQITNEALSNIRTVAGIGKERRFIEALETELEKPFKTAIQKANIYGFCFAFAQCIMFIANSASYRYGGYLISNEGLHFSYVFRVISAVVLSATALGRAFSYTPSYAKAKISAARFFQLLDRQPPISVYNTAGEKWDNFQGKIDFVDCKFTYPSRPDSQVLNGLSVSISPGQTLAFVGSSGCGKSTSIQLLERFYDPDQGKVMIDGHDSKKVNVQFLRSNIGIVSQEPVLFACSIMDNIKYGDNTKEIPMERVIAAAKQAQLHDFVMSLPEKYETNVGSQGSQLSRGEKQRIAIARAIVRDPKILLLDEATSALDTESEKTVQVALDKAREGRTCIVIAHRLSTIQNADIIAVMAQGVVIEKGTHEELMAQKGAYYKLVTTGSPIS
# Method: Compounds were diluted to 100 mM with DMSO; then subjected to a serial dilution of 3-fold for eleven dilutions. The minimum concentration was 0.169 μM. • 2. […] The minimum concentration was 19.5 μM. Experimental Protocol: • 1. ECHO was used to transfer 0.3 μl of DMSO solution of the compounds or diluted DMSO to the corresponding wells of the compounds plate, respectively. • 2. 14.7 μl of ATP Buffer was added into the corresponding wells of the compounds and the zero percent effect (ZPE), respectively. • 3. 14.7 μl of AMP Buffer was added into the corresponding wells of the hundred percent effect (HPE). • 4. The plate was shaken for 10 minutes at 25° C. • 5. 15 μl of BSEP-Hi5-VT Vesicle solution was added to each well separately and the plate was shaken for a further 40 minutes at 25° C. • 6. 5 μl of 0.5 M Ethylenediaminetetraacetic acid (EDTA) solution was immediately added to each well, followed by 65 μl of Buffer B. All reactions were complete. • 7. After the reactions were complete, 95 μl of liquid was transferred from the compounds plate to the filter plate using apparatus. • 8. The liquid receiving plate was placed under the filter plate. Then the liquid was removed using a centrifuge. The liquid on the receiving plate was discarded. • 9. 90 μl of Buffer B was added to the filter plate. The liquid receiving plate was placed under the filter plate. Then the liquid was removed using a centrifuge. The liquid on the receiving plate was discarded. The filter plate was washed three times in total. • 10. The filter plate was left to dry overnight. • 11. On the next day, 80 μl of methanol/water (80/20, v/v) solution was added to the filter plate. • 12. The plate was vibrated for 15 minutes after applying the film to the filter plate. • 13. […] Taurocholic acid in the receiving plate was determined using LC/MS/MS.
# Several concentrations were tested in each experiment and the data was analyzed using Prism to produce a concentration-response curve to calculate the IC50 values of the compounds.
# [2] = Pharmacokinetics accompanying the efficacy in the MCT-induced rat model of pulmonary hypertension; format: in vivo, SD rats; details: day 21, mean, n = 3; for MRT last: read-out: MRT0-last; for MRT inf: read-out: MRT0-inf
# Method: Blood samples were taken before and after dosing on the day of the endpoint, at time points of 0, 0.25, 0.5, 1, 2, 4, 6 and 8 h. The rats were placed in a fixator, 250 μL of blood was collected from the tail vein, transferred to an EP tube with anticoagulant (5-8 μL of 15% EDTA), inverted and shaken, and immediately placed on wet ice for temporary storage. The collected blood samples were placed in centrifugal machines and centrifuged at 4° C., 3000 rpm for 15 min. The plasma was collected after centrifugation and immediately placed on dry ice. After all samples have been collected and transferred to cryopreservation at −80° C. for pharmacokinetic analysis.
# Blood samples were collected before and after dosing on day 21 and collected at time points 0, 0.25, 0.5, 1, 2, 4, 6 and 8 h for analysis of plasma drug concentrations of the compound of formula (I) and Macitentan.
# [3] = system: pulmonary hypertension in SD rats induced by monocrotaline (MCT); assay: In vivo pharmacodynamic evaluation, monocrotaline (MCT)-induced pulmonary hypertension model; details: for 21-day weight change rate / PCNA positivity rate / Percentage of middle pulmonary artery intima-media thickness / Right ventricular ejection fraction / Right ventricular hypertrophy index / Right ventricular systolic pressure / Right ventricular wall thickness: 21 days, Mean ± SEM, n = 12
# Text: The animal model of pulmonary hypertension in SD rats induced by monocrotaline (MCT) was used in this study to examine the pharmacological effects of the test compound on a rat model of pulmonary hypertension.
# • Species: Rat • Strain: Sprague-Dawley • Age at arrival at animal house: 5 weeks • Gender: Male • Animal weight at the start of the experiment: 200-260 g • Number: 88 (81 for pharmacodynamic (PD) and pharmacokinetic (PK) tests and 7 for PK-blank matrix) • Supplier: Shanghai SLAC Experimental Animals Co. • Certificate of the animals: 20170005008695 Other Reagent Information
# Solutions of 3 mg/mL Macitentan, 0.1 mg/mL, 0.3 mg/mL and 1 mg/mL the compound of formula (I): an appropriate amount of the compound was weighed and added to a flask with an appropriate volume. PEG 400 of 20% of the total volume was added. Heating and stirring were conducted at 40° C. Tween 80 of 0.5% of the total volume was added. Heating and stirring were conducted at 40° C. Deionized water of 70-75% of the volume was added. Heating and stirring were conducted at 40° C. The pH was adjusted with 5 N NaOH until became clear. Then the pH was reversely adjusted to less than 9 with 6 N HCl and 1 N HCl. The remaining volume was made up with deionized water to achieve the total volume. The final pH was determined (9±0.1).
# After the animals had been acclimatized for about 1 week, the animals were randomized into 9 groups according to body weight and the condition of the animal, as shown in Table 15.
# Monitoring Indicators Monitoring Indicators in PD Tests • 1) Daily monitoring of the general condition of the animals and their body weights; • 2) Right ventricular function tests: right ventricular ejection fraction (RVEF), right ventricular wall thickness (RVWT); • 3) Hemodynamic tests: right ventricular systolic pressure (RVSP); • 4) Determination of the right ventricular hypertrophy index (RVHI): RV/(LV+SEP); • 5) […] staining to observe PAWT/IHC staining to observe PCNA as the endpoint detection. Monitoring Indicators in PK Tests • 1) Daily monitoring of the general condition of the animals and their body weights; • 2) Plasma: determination of the pharmacokinetic parameters of the compounds in plasma. Test Method B-Mode Ultrasonic Detection of RVEF, RVWT
# Rats were anesthetized with 30 mg/mL pentobarbital sodium (2 mL/kg, ip) and RVEF, RVWT were measured using a small animal ultrasound instrument (VEVO-1100).
# Rats were anesthetized with 30 mg/mL sodium pentobarbital (2 mL/kg, ip), fixed onto a surgical plate in supine position, and shaved on the neck. A skin incision was made on the neck. The subcutaneous tissue and muscle layer were bluntly dissected. And the left carotid artery and right jugular vein were stripped. A rat-specific right heart catheter (a PE tube with an external diameter of about 1.5 mm and a small arc-shaped curve at the distal end) connected to a pressure transducer and filled with 0.3% heparin sodium solution was inserted into the right external jugular vein. The arc of the pulmonary artery catheter was kept downwards during the operation and the pulmonary artery catheter was threaded towards the right atrium. The pressure waveform was used to judge whether it had reached the heart. The catheter was deflected towards the left and pushed forward into the right ventricle.
# The heart was removed. The atria and great vessels were removed. Blotted to dryness with filter paper. The right ventricle was stripped and weighed to calculate RVHI=RV/(LV+SEP).
# After euthanasia of the rats, the middle lobe of the right lung was removed, perfused using saline and placed in 4% paraformaldehyde for fixation for the purpose of pathological examination.
# All data was entered into an Excel document and expressed as mean (Mean)±standard error of mean (SEM). One-way ANOVA with Dunnett's t test was used to analyze and compare the data of each group. Differences between two groups were compared using the unpaired two-tailed t-test method.
# [4] = Sprague-Dawley, rat, plasma, po, 30 mg/kg gavage
# [5] = Sprague-Dawley, rat, plasma, po, 1 mg/kg gavage
# [6] = Sprague-Dawley, rat, plasma, po, 3 mg/kg gavage
smiles,measurement,setting,value
"CCCNS(=O)(=O)Nc1ncnc(OCCOc2ncc(Br)cn2)c1-c1ccc(Br)cc1 [Macitentan, reference compound]",Inhibitory effect on bile salt export pump (in words),[1],strong inhibitory effect
same,IC50,"[1]; taurocholic acid substrate, BSEP-Hi5-VT vesicles",470 nM
same,Tlast,[2]; 30 mg/kg gavage,8.00 h
same,AUC(0-t),[2]; [4],11000 ng·h/mL
same,Cmax,[2]; [4],1840 nM
same,Tmax,[2]; [4],4.08 h
same,MRT last,[2]; [4],4.38 h
same,21-day weight change rate,[3]; 30 mg/kg gavage once a day,45.75 ± 2.14%
same,PCNA positivity rate,[3]; 30 mg/kg gavage once a day,4.43 ± 0.42%
same,Percentage of middle pulmonary artery intima-media thickness,[3]; 30 mg/kg gavage once a day,46.56 ± 1.07 %
same,Right ventricular ejection fraction,[3]; 30 mg/kg gavage once a day,58.87 ± 1.71 %
same,Right ventricular hypertrophy index,[3]; 30 mg/kg gavage once a day,0.36 ± 0.03
same,Right ventricular systolic pressure,[3]; 30 mg/kg gavage once a day,38.71 ± 3.52 mmHg
same,Right ventricular wall thickness,[3]; 30 mg/kg gavage once a day,1.13 ± 0.04 mm
COCCNS(=O)(=O)Nc1ncnc(OCCOc2ncc(Br)cn2)c1-c1ccc2c(c1)OCO2 [Compound of formula (I)],Inhibitory effect on bile salt export pump (in words),[1],extremely weak inhibitory effect
same,AUC0-inf/AUC0-last,[2]; 1 mg/kg gavage,111%
same,Tlast,[2]; 1 mg/kg gavage,8.00 h
same,AUC0-inf/AUC0-last,[2]; 3 mg/kg gavage,132%
same,AUC(0-inf),[2]; 3 mg/kg gavage,5540 ng·h/mL
same,Tlast,[2]; 3 mg/kg gavage,8.00 h
same,AUC(0-inf),"[2]; Sprague-Dawley, rat, plasma, po, 1 mg/kg, 1 mg/kg gavage, read-out: AUC0-inf",1410 ng·h/mL
same,AUC(0-inf),"[2]; Sprague-Dawley, rat, plasma, po, 3 mg/kg, 3 mg/kg gavage, read-out: AUC0-inf",5230 ng·h/mL
same,AUC(0-t),[2]; [5],1270 ng·h/mL
same,Cmax,[2]; [5],345 nM
same,Tmax,[2]; [5],1 h
same,half-life,[2]; [5],2.3 h
same,MRT inf,[2]; [5],3.64 h
same,MRT last,[2]; [5],2.83 h
same,AUC(0-t),[2]; [6],4220 ng·h/mL
same,Cmax,[2]; [6],1120 nM
same,Tmax,[2]; [6],1 h
same,half-life,[2]; [6],3.64 h
same,MRT inf,[2]; [6],5.52 h
same,MRT last,[2]; [6],3.04 h
same,21-day weight change rate,[3]; 1 mg/kg PO/QD,43.33 ± 1.56%
same,PCNA positivity rate,[3]; 1 mg/kg PO/QD,3.6 ± 0.69 %
same,Percentage of middle pulmonary artery intima-media thickness,[3]; 1 mg/kg PO/QD,40.44 ± 1.13 %
same,Right ventricular ejection fraction,[3]; 1 mg/kg PO/QD,58.48 ± 2.11 %
same,Right ventricular hypertrophy index,[3]; 1 mg/kg PO/QD,0.40 ± 0.01
same,Right ventricular systolic pressure,[3]; 1 mg/kg PO/QD,40.72 ± 3.38 mmHg
same,Right ventricular wall thickness,[3]; 1 mg/kg PO/QD,1.16 ± 0.05 mm
same,21-day weight change rate,[3]; 3 mg/kg PO/QD,41.23 ± 3.47%
same,PCNA positivity rate,[3]; 3 mg/kg PO/QD,3.56 ± 0.66 %
same,Percentage of middle pulmonary artery intima-media thickness,[3]; 3 mg/kg PO/QD,35.44 ± 1.55 %
same,Right ventricular ejection fraction,[3]; 3 mg/kg PO/QD,58 ± 1.80 %
same,Right ventricular hypertrophy index,[3]; 3 mg/kg PO/QD,0.38 ± 0.03
same,Right ventricular systolic pressure,[3]; 3 mg/kg PO/QD,36.70 ± 3.81 mmHg
same,Right ventricular wall thickness,[3]; 3 mg/kg PO/QD,1.11 ± 0.05 mm
same,21-day weight change rate,[3]; 10 mg/kg PO/QD,42.04 ± 3.07%
same,PCNA positivity rate,[3]; 10 mg/kg PO/QD,2.85 ± 0.65 %
same,Percentage of middle pulmonary artery intima-media thickness,[3]; 10 mg/kg PO/QD,40.11 ± 1.07 %
same,Right ventricular ejection fraction,[3]; 10 mg/kg PO/QD,59.86 ± 2.29 %
same,Right ventricular hypertrophy index,[3]; 10 mg/kg PO/QD,0.36 ± 0.02
same,Right ventricular systolic pressure,[3]; 10 mg/kg PO/QD,37.82 ± 3.10 mmHg
same,Right ventricular wall thickness,[3]; 10 mg/kg PO/QD,1.10 ± 0.05 mm
same,Indicators of pulmonary hypertension and right ventricular function (in words),"[3]; doses of 1, 3 and 10 mg/kg",significantly improved
